Data: patent US20130096067A1, “DROSOPHILA TUMOR STEM CELL MODEL AND USES THEREOF” (priority 2011, published 2013)
Square brackets hold non-standard residues; d marks the D form. Peptide text beside a SMILES is read from it. * marks the point of attachment. Nle = CCCC[C@H](N)C(=O)O; CH2Cl = ClC*

Test system: Raf-1^gof intestinal tumors
Conditions: for Log2 (fold) (luciferase activity, log2 of the fold difference relative to DMSO controls) / Fold (luciferase activity, fold difference relative to DMSO controls): screen of 480 ICCB compounds in vials, compounds fed to flies with one-day old Raf-1^gof tumors, esg-Gal4 luciferase; for Log2 (fold) (luciferase activity, log2 of the fold difference relative to DMSO controls) / Fold (luciferase activity, fold difference relative to DMSO controls) / Log2 (fold) of luciferase activity relative to DMSO controls / Fold (luciferase activity relative to DMSO controls): assessed three days later; for Fold (luciferase activity, fold difference relative to DMSO controls) / Fold (luciferase activity relative to DMSO controls): averaged from multiple wells; for Log2 (fold) of luciferase activity relative to DMSO controls / Fold (luciferase activity relative to DMSO controls): ICCB compounds fed in vials to flies with one-day old Raf-1^gof tumors
For Fold (luciferase activity relative to DMSO controls) in this document: test concentration or dose not given here.
For Fold (luciferase activity, fold difference relative to DMSO controls) in this document: test concentration or dose not given here.
For Log2 (fold) (luciferase activity, log2 of the fold difference relative to DMSO controls) in this document: test concentration or dose not given here.
For Log2 (fold) of luciferase activity relative to DMSO controls in this document: test concentration or dose not given here.

Compound	Log2 (fold) (luciferase activity, log2 of the fold difference relative to DMSO controls)	Fold (luciferase activity, fold difference relative to DMSO controls)	Log2 (fold) of luciferase activity relative to DMSO controls	Fold (luciferase activity relative to DMSO controls) [fold]	Fold (Table 3 summary of hits, Screen ICCB, luciferase relative to DMSO, fed three consecutive days in vials) [fold]
C=C1[C@@H](C)[C@H]2[C@H](Cc3ccccc3)NC(=O)[C@]23[C@H](OC(C)=O)/C=C/[C@@](C)(O)C(=O)[C@@H](C)C/C=C/[C@H]3[C@@H]1O [cytochalasin D]	−0.276	0.826	–	–	–
CN1CCN(CCCN2c3ccccc3Sc3ccc(C(F)(F)F)cc32)CC1 [trifluoperazine]	–	–	−0.206	0.867	–
[Cl-].c1ccc2c(c1)[I+]c1ccccc1-2 [diphenyleneiodonium Cl]	−0.576	0.671	–	–	–
CCCCCCCC/C=C\CCCCCCCC(=O)OCC(CO)OC(=O)CCCCCCC/C=C\CCCCCCCC (stereo not drawn) [1,2-DIOLEOYL-GLYCEROL (18:1)]	–	–	0.443	1.359	–
CC[C@H](C)C(=O)O[C@H]1C[C@@H](C)C=C2C=C[C@H](C)[C@H](CC[C@@H]3C[C@@H](O)CC(=O)O3)[C@H]21 [Mevinolin (lovastatin)]	−0.512	0.701	–	–	–
CCCCC/C=C\C/C=C\C/C=C\C=C\[C@H](CCCC(=O)O)OO [5(S)-HPETE]	−0.524	0.696	–	–	–
CCCCCCCCCC(=O)OCC(CO)OC(=O)CCCCCCCCC (stereo not drawn) [1,2-DIDECANOYL-GLYCEROL (10:0)]	–	–	0.310	1.240	–
CC(C)(c1ccc(OCC2CO2)cc1)c1ccc(OCC2CO2)cc1 (stereo not drawn) [BADGE]	–	–	0.345	1.270	–
CCCC[C@@H](C=O)NC(=O)[C@H](CC(C)C)NC(=O)[C@H](CC(C)C)NC(C)=O [Ac-Leu-Leu-Nle-CHO] (Ac-Leu-Leu-[Nle]-aldehyde)	−0.431	0.742	–	–	–
CCOC(=O)C(C)(C)Oc1ccc(Cl)cc1 [CLOFIBRATE]	–	–	0.221	1.165	–
CCCCC/C=C\C/C=C\CC1OC1C/C=C\CCCC(=O)O (stereo not drawn) [8,9-EPOXYEICOSATRIENOIC ACID]	−0.625	0.649	–	–	–
tunicamycin [reference compound]	−1.925	0.263	–	–	0.263
C/C=C/C/C=C/CCC(=O)[C@H]1O[C@H]1C(N)=O [Cerulenin]	−0.474	0.720	–	–	–
O=C(NCC1CCCCN1)c1cc(OCC(F)(F)F)ccc1OCC(F)(F)F (stereo not drawn) [FLECAINIDE]	−0.253	0.839	–	–	–
CCCCCCCCCCCCCCCC(=O)C1=C(O)C(CO)OC1=O (stereo not drawn) [RK-682]	−0.492	0.711	–	–	–
O=C1CSC(c2ccccc2Cl)c2cc(Cl)ccc2N1 (stereo not drawn) [CGP-37157]	–	–	−0.195	0.873	–
Oc1ccc(-c2nc(-c3ccc(F)cc3)c(-c3ccncc3)[nH]2)cc1 [SB 202190]	−0.222	0.857	–	–	–

Compound	Log2 (fold) (luciferase activity, log2 of the fold difference relative to DMSO controls)	Fold (luciferase activity, fold difference relative to DMSO controls)	Log2 (fold) of luciferase activity relative to DMSO controls	Fold (luciferase activity relative to DMSO controls) [fold]	Fold (Table 3 summary of hits, Screen ICCB, luciferase relative to DMSO, fed three consecutive days in vials) [fold]
O=C(O)c1cc(N(Cc2ccccc2O)Cc2cc(O)ccc2O)ccc1O [Lavendustin A]	−0.297	0.814	–	–	–
COC(=O)[C@@H]1[C@H]2C[C@H]3c4[nH]c5ccccc5c4CCN3C[C@@H]2CC[C@@H]1O [yohimbine]	–	–	0.061	1.043	–
Cc1ccc(S(=O)(=O)NC(=O)NN2CCCCCC2)cc1 [TOLAZAMIDE]	−0.365	0.776	–	–	–
CC[N+](C)(CC)CCC[n+]1c(-c2ccccc2)c2cc(N)ccc2c2ccc(N)cc21.[I-].[I-] [propidium iodide]	–	–	0.100	1.072	–
CCCCCC(=O)/C=C/C=C\C/C=C\C/C=C\CCCC(=O)O [15-KETOEICOSATETRAENOIC ACID]	−0.266	0.832	–	–	–
CN(C)C[C@H](O)Cn1c2ccc(Br)cc2c2cc(Br)ccc21 (racemic) [Wiskostatin]	−0.646	0.639	–	–	–
CCCCC/C=C\C/C=C\C/C=C\CCCCCCC(=O)O [DIHOMO-GAMMA-LINOLENIC ACID]	–	–	0.323	1.251	–
MDL-28170	−0.617	0.652	–	–	–
CC1=C(CC/C(C)=C/CCC2=CC[C@H](C3=CC(=O)O[C@H]3O)O[C@H]2O)C(C)(C)CCC1 [Manoalide]	−0.490	0.712	–	–	–
CNc1ccc2oc(C[C@H]3O[C@@]4(CC[C@H]3C)O[C@H]([C@H](C)C(=O)c3ccc[nH]3)[C@H](C)C[C@H]4C)nc2c1C(=O)O [A-23187]	–	–	0.176	1.130	–
COC(=O)[C@@H](N)CCCNC(=N)N[N+](=O)[O-] [L-NAME]	−0.446	0.734	–	–	–
Clc1cccc(Nc2nnc(-c3ccccc3)c3ccccc23)c1 [MY-5445]	–	–	−0.037	0.975	–
C[C@H](N)C(=O)N[C@@H](C)C(=O)N[C@@H](Cc1ccccc1)C(=O)CCl [Ala-Ala-Phe-CMK] (H-Ala-Ala-Phe-CH2Cl)	−0.738	0.599	–	–	–
COC1=CC(=O)O[C@@H](/C=C/c2ccccc2)C1 (racemic) [Kavain (+/−)]	−0.357	0.781	–	–	–
CCCC[C@@H](C=O)NC(=O)[C@H](CC(C)C)NC(=O)OCc1ccccc1 [calpeptin]	−0.235	0.849	–	–	–
Clc1ccc(C2CC3CCC2N3)cn1 (racemic) [epibatidine (+/−)]	−0.457	0.729	–	–	–
CCCCCCCCCCCCCC(=O)O[C@@H]1[C@@H](C)[C@@]2(O)[C@@H](C=C(CO)C[C@]3(O)C(=O)C(C)=C[C@@H]23)[C@@H]2C(C)(C)[C@]12OC(C)=O [phorbol 12 myristate 13 acetate]	−0.323	0.799	–	–	–
